Tests used:
C57BL/6 male mice [1] = experiment: Small intestine epithelial injury after abdominal X-ray irradiation at 3 or 6 Gy (Example 8); type: in vivo; details: for small intestine villus length: 4 days after
Protocol: CS7BL/6 male mice (24.8±1.6 g in body weight) aged 10 weeks were divided into 5 groups of 6 mice each. JAC4 (100 mg/kg) or an equal volume of vehicle (polyethylene glycol:ethanol:physiological saline=47.5:7.5:50, v/v/v) was orally administered to the mice once daily for 7 consecutive days. After that, the mice were subjected to abdominal X-ray irradiation at different doses (3 or 6 Gy) and JAC4 or vehicle treatment was continued. After 4 days, the small intestine tissues were collected for HE staining and inspection, the small intestine villus length and the ileum crypt height in all groups were measured and statistically analyzed, and the small intestine was histopathologically scored. The specific procedures are as follows: 3 mice were randomly selected from each group for statistical analysis of their small intestine tissue HE staining images, and for each mouse, 6 fields of view were randomly selected for inspection (*** p<0.001).

SPCA-1 cells = experiment: Intracellular ROS (DCFH-DA), SPCA-1 (Example 22); type: cell-based, human
Description: The large amount of reactive oxygen species (ROS) induced by X-ray and the sustained oxidative stress reaction may cause DNA damage. Superoxide dismutase (SOD) and catalase (CAT) exert antioxidant effects, and the lipid oxidation product malondialdehyde (MDA) and ROS can reflect the oxidative stress level in vivo. The intracellular ROS level was detected using the fluorescent probe DCFH-DA. […] The supernatant of BEAS-2B cells was extracted and subjected to an MDA assay and an activity assay for CAT and SOD.

C57BL/6 male mice [2] = experiment: Body weight after abdominal X-ray irradiation 12 Gy (Example 9); type: in vivo; details: JAC4 100 mg/kg oral + abdominal X-ray 12 Gy
Protocol: CS7BL/6 male mice aged 10 weeks were divided into 3 groups, i.e., a vehicle control group, a vehicle+radiation group, and a JAC4+radiation group 8 days after radiation, with 6 mice in each group. JAC4 (100 mg/kg) or an equal volume of vehicle (polyethylene glycol:ethanol:physiological saline=47.5:7.5:50, v/v/v) was orally administered to the mice once daily for 7 days. After that, the mice were subjected to abdominal X-ray irradiation (12 Gy) and the JAC4 or vehicle treatment was continued for 4 days. The body weights of the mice before and after […] X-ray irradiation were recorded daily, and body weight curves were plotted.

C57BL/6 male mice [3] = experiment: Lengths of small intestine and colon, acute radiation enteritis (Example 11); type: in vivo; details: JAC4 100 mg/kg oral + abdominal X-ray 12 Gy
Protocol: C57BL/6 male mice (27.6±1.9 g in body weight) aged 10 weeks were divided into 3 groups of 6 mice each. JAC4 (100 mg/kg) or an equal volume of vehicle (polyethylene glycol:ethanol:physiological saline=40:7.5:52.5, v/v/v) was orally administered to the mice once daily for 7 consecutive days. After that, the mice were subjected to abdominal X-ray irradiation (12 Gy) and JAC4 or vehicle treatment was continued. After 4 days, blood samples and small intestine were collected.
The small intestine epithelial mucosal barrier is located at the interface between luminal micro-organisms and the mucosal immune system, and can maintain the intestinal mucosal barrier homeostasis. The integrity of the small intestine mucosal barrier is determined by a number of factors, including the tight junction proteins, proteins in other cell junction complexes, and the like. JAC4 has a protective effect on the small intestine mucosal barrier. The disruption of the small intestine mucosal barrier may lead to radiation enteritis and a reduction in the length of small intestine due to the inflammatory edema.

JWA^IEC-wt mice = experiment: X-ray-induced intestinal injury in JWA^IEC-wt mice (Example 12); type: in vivo; details: ABI 10 Gy
Description: The Model Animal Research Institute of Nanjing University was commissioned to conduct the construction of JWA^flox/+ A129 mice and embryo cryopreservation, preservation, and thawing. These mice were bred with wild-type C57/BL6 mice for over six generations to give mice of C57/BL6 background. Villin-cre mice, provided by Shanghai Model Organisms Center, Inc., were C57/BL6 mice. The JWA-knockout mice (JWA^ko) and their littermate control (JWA^wt) counterparts were derived from an in-house conservation breed. The JWA^flox/flox mice were bred from the JWA^flox/+ mice. The intestinal epithelial JWA-knockout mice (JWA^IEC-ko) and control group (JWA^IEC-wt) were obtained through breeding JWA^flex/flex mice with Villin-cre mice.
The off-target model was established using JWA^IEC-ko mice and their JWA^IEC-wt littermates (8 weeks old), and the mice receiving radiation were divided into 4 groups: (1) a JWA^IEC-wt mice+vehicle group (n=5); (2) a JWA^IEC-wt mice+JAC4 group (n=5); (3) a JWA^IEC-ko mice+vehicle group (n=6); (4) a JWA^IEC-ko mice+JAC4 group (n=5). All mice were subjected to abdominal irradiation at 10 Gy. 7 days before radiation, 10 mg/kg JAC4 or an equal volume of vehicle (polyethylene glycol:ethanol:physiological saline=40:7.5:52.5, v/v/v) was administered intragastrically daily until the end of modeling. The blank control group (wild type, n=6) was not irradiated, and the modeling was terminated on day 4 after radiation.
To verify whether the protective effect of JAC4 on X-ray radiation-induced intestinal damage in mice is dependent on the expression of JWA, the present disclosure verified the targeting effect of JAC4 using JWA^IEC-ko mice.
JWA^IEC-ko and JWA^IEC-wt mice were treated daily with JAC4 (10 mg/kg) or an equal volume of vehicle (polyethylene glycol:ethanol:physiological saline=47.5:7.5:50, v/v/v), respectively, from 7 days before the ABI (10 Gy) exposure to 4 days after the exposure. […] Meanwhile, the contents of TNF-α and IL-1β were consistent with the results of FD4. […] As shown in panels E and F, ABI increased the activity of GSH-Px (530.8±207.8 vs. 406.2±197.9 U/mL) and decreased the activity of CAT (89.4 f 0.4 vs. 68.7±14.2 U/mL). JAC4 further enhanced the antioxidant enzymes in JWA^IEC-wt mice (815.1±203.9 vs. 530.8±207.8 U/mL and 85.9±8.2 vs. 68.7±14.2 U/mL; P<0.05, P<0.05). […] Intestinal tissues were isolated, and the expression of apoptotic molecules was detected by Western blot (FIG. 16J). In wild-type mice, compared with the control group, X-rays increased the expression of Bax and cleaved PARP1 in the small intestine.

[4] = JAC4 100 mg/kg oral + abdominal X-ray 3 Gy
[5] = JAC4 100 mg/kg oral + abdominal X-ray 6 Gy
[6] = JWA^IEC-wt mice, JAC4 10 mg/kg daily

## c1ccc(CSc2nnc(C3COc4ccccc4O3)o2)nc1 (stereo not shown) [JAC4]
C57BL/6 male mice [1]; [4]
  ileum crypt height: 62.06±3.26 μm
  small intestine histopathological score: 1.50±0.55
  small intestine villus length: 278.19±25.21 μm
C57BL/6 male mice [1]; [5]
  ileum crypt height: 57.32±4.43 μm
  small intestine histopathological score: 4.17±0.98
  small intestine villus length: 278.25±23.79 μm
SPCA-1 cells
  ROS level: no significant effect
C57BL/6 male mice [2]
  body weight curve: consistently above that of the vehicle+radiation group
C57BL/6 male mice [3]; 4 days after
  small intestine length: 34.83±1.44 cm
C57BL/6 male mice [3]; among the groups
  length of the colon: no statistically significant differences
JWA^IEC-wt mice; [6]
  plasma CAT activity: 85.9±8.2 U/mL
  plasma GSH-Px activity: 815.1±203.9 U/mL
  plasma IL-1β: 57.76 ± 5.9 ng/mL
  plasma TNF-α: 583.2 ± 78.2 ng/mL
JWA^IEC-wt mice; JWA^IEC-wt mice, JAC4 10 mg/kg daily, day 4
  plasma FD4 content: 6719.9 ± 1823.5 ng/mL
JWA^IEC-wt mice; wild-type mice, JAC4 10 mg/kg
  expression of Bax and cleaved PARP1 in small intestine (Western blot): downregulated

From US20250345318A1, “COMPOUND AND USE THEREOF IN PREVENTING OR TREATING RADIATION DAMAGE” (SIMCERE PHARMACEUTICAL CO., LTD., priority 2022, published 2025)
